Data taken from PubChem BioAssay AID1919004 (Molecular Pharmacology Branch, DTP, NCI, 2023).
Values joined by “and” are separate entries in the source; they are usually repeats but may differ in a detail not shown here. Identical values can stand only once.

System: 883617-216-R-J1-PDC complex spheroids, growth, % test/control
Assay: Anticancer human tumor 883617-216-R-J1-PDC patient-derived bladder carcinoma cell line growth inhibition [AhR]
Conditions: for viability, T/C: stronger effect = lower value; active means viability on the fitted dose curve at most 10% of control; inactive means the rest
Outline: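 Spheroids combined tumor cells with HUVEC endothelial cells and human MSCs as stroma. AhR antagonists were paired with standard or investigational drugs, each dosed in half-log steps down from near clinical Cmax, or from 10 microM where Cmax was unknown.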

[1] = curve of first compound, second compound 0.1 µM
[2] = curve of first compound, second compound 0.316 µM
[3] = curve of first compound, second compound 1 µM
[4] = curve of first compound, second compound 3.16 µM
[5] = curve of first compound, second compound 10 µM
[6] = second compound 0.1 µM, first compound 0.000316 µM
[7] = second compound 0.1 µM, first compound 0.001 µM
[8] = second compound 0.1 µM, first compound 0.00316 µM
[9] = second compound 0.1 µM, first compound 0.01 µM
[10] = second compound 0.1 µM, first compound 0.0316 µM
[11] = second compound 0.1 µM, first compound 0.1 µM
[12] = second compound 0.316 µM, first compound 0.000316 µM
[13] = second compound 0.316 µM, first compound 0.001 µM
[14] = second compound 0.316 µM, first compound 0.00316 µM
[15] = second compound 0.316 µM, first compound 0.01 µM
[16] = second compound 0.316 µM, first compound 0.0316 µM
[17] = second compound 0.316 µM, first compound 0.1 µM
[18] = second compound 1 µM, first compound 0.000316 µM
[19] = second compound 1 µM, first compound 0.001 µM
[20] = second compound 1 µM, first compound 0.00316 µM
[21] = second compound 1 µM, first compound 0.01 µM
[22] = second compound 1 µM, first compound 0.0316 µM
[23] = second compound 1 µM, first compound 0.1 µM
[24] = second compound 3.16 µM, first compound 0.000316 µM
[25] = second compound 3.16 µM, first compound 0.001 µM
[26] = second compound 3.16 µM, first compound 0.00316 µM
[27] = second compound 3.16 µM, first compound 0.01 µM
[28] = second compound 3.16 µM, first compound 0.0316 µM
[29] = second compound 3.16 µM, first compound 0.1 µM
[30] = second compound 10 µM, first compound 0.000316 µM
[31] = second compound 10 µM, first compound 0.001 µM
[32] = second compound 10 µM, first compound 0.00316 µM
[33] = second compound 10 µM, first compound 0.01 µM
[34] = second compound 10 µM, first compound 0.0316 µM
[35] = second compound 10 µM, first compound 0.1 µM
[36] = second compound 0.1 µM, first compound 0.316 µM
[37] = second compound 0.1 µM, first compound 1 µM
[38] = second compound 0.1 µM, first compound 3.16 µM
[39] = second compound 0.1 µM, first compound 10 µM
[40] = second compound 0.316 µM, first compound 0.316 µM
[41] = second compound 0.316 µM, first compound 1 µM
[42] = second compound 0.316 µM, first compound 3.16 µM
[43] = second compound 0.316 µM, first compound 10 µM
[44] = second compound 1 µM, first compound 0.316 µM
[45] = second compound 1 µM, first compound 1 µM
[46] = second compound 1 µM, first compound 3.16 µM
[47] = second compound 1 µM, first compound 10 µM
[48] = second compound 3.16 µM, first compound 0.316 µM
[49] = second compound 3.16 µM, first compound 1 µM
[50] = second compound 3.16 µM, first compound 3.16 µM
[51] = second compound 3.16 µM, first compound 10 µM
[52] = second compound 10 µM, first compound 0.316 µM
[53] = second compound 10 µM, first compound 1 µM
[54] = second compound 10 µM, first compound 3.16 µM
[55] = second compound 10 µM, first compound 10 µM
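Further: exposure lasted 7 days after dosing on day 3 of spheroid growth.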

Cn1ncnc1C1c2n[nH]c(=O)c3cc(F)cc(c23)NC1c1ccc(F)cc1 (configuration not stated) + CC(CO)NC(=O)c1cc(-c2ccc(Cl)cc2)nn(-c2cnn(C)c2)c1=O
> 100 nM: IC50 [1] | IC50 [2] | IC50 [3] | IC50 [4] | IC50 [5]
inactive: viability, T/C [6] 72.7% | viability, T/C [7] 96.6% | viability, T/C [8] 77.3% | viability, T/C [9] 57.7% | viability, T/C [10] 55.6% | viability, T/C [11] 93% | viability, T/C [12] 90.4% | viability, T/C [13] 92.8% | viability, T/C [14] 78.6% | viability, T/C [15] 75.8% | viability, T/C [16] 86% | viability, T/C [17] 98.7% | viability, T/C [18] 59.7% | viability, T/C [19] 92.4% | viability, T/C [20] 75.1% | viability, T/C [21] 59.8% | viability, T/C [22] 87.6% | viability, T/C [23] 89.9% | viability, T/C [24] 77.3% | viability, T/C [25] 51% | viability, T/C [26] 123% | viability, T/C [27] 82.8% | viability, T/C [28] 50.2% | viability, T/C [29] 69.2% | viability, T/C [30] 78.6% | viability, T/C [31] 68.8% | viability, T/C [32] 70.6% | viability, T/C [33] 72% | viability, T/C [34] 55.7% | viability, T/C [35] 80.9%

Cn1ncnc1C1c2n[nH]c(=O)c3cc(F)cc(c23)NC1c1ccc(F)cc1 (configuration not stated) + Cc1ccccc1N=Nc1ccc(NC(=O)c2ccnn2C)c(C)c1
inactive: viability, T/C [6] 98.1% | viability, T/C [7] 97.5% | viability, T/C [8] 92.7% | viability, T/C [9] 88.7% | viability, T/C [10] 89.2% | viability, T/C [11] 79.9% | viability, T/C [12] 76.4% | viability, T/C [13] 85.7% | viability, T/C [14] 82.7% | viability, T/C [15] 83.4% | viability, T/C [16] 71.9% | viability, T/C [17] 78.3% | viability, T/C [18] 87.5% | viability, T/C [19] 87.1% | viability, T/C [20] 86.1% | viability, T/C [21] 78.6% | viability, T/C [22] 81% | viability, T/C [23] 81.1% | viability, T/C [24] 82% | viability, T/C [25] 80.1% | viability, T/C [26] 78.4% | viability, T/C [27] 87.3% | viability, T/C [28] 84.6% | viability, T/C [29] 85.5% | viability, T/C [30] 70.4% | viability, T/C [31] 98.1% | viability, T/C [32] 75.8% | viability, T/C [33] 81.8% | viability, T/C [34] 63.6% | viability, T/C [35] 76%
> 100 nM: IC50 [1] | IC50 [2] | IC50 [3] | IC50 [4] | IC50 [5]

CCc1c2c(nc3ccc(O)cc13)-c1cc3c(c(=O)n1C2)COC(=O)[C@]3(O)CC + Cc1ccccc1N=Nc1ccc(NC(=O)c2ccnn2C)c(C)c1
109 nM: IC50 [4]
inactive: viability, T/C (second compound 0.1 µM, first compound 0.000949 µM) 92% | viability, T/C (second compound 0.1 µM, first compound 0.003 µM) 84% | viability, T/C (second compound 0.1 µM, first compound 0.00949 µM) 72.7% | viability, T/C (second compound 0.1 µM, first compound 0.03 µM) 70.2% | viability, T/C (second compound 0.1 µM, first compound 0.0949 µM) 60.3% | viability, T/C (second compound 0.1 µM, first compound 0.3 µM) 42.1% | viability, T/C (second compound 0.316 µM, first compound 0.000949 µM) 80.8% | viability, T/C (second compound 0.316 µM, first compound 0.003 µM) 82.2% | viability, T/C (second compound 0.316 µM, first compound 0.00949 µM) 77.6% | viability, T/C (second compound 0.316 µM, first compound 0.03 µM) 66.8% | viability, T/C (second compound 0.316 µM, first compound 0.0949 µM) 56.5% | viability, T/C (second compound 0.316 µM, first compound 0.3 µM) 43.6% | viability, T/C (second compound 1 µM, first compound 0.000949 µM) 80.9% | viability, T/C (second compound 1 µM, first compound 0.003 µM) 83.8% | viability, T/C (second compound 1 µM, first compound 0.00949 µM) 79.1% | viability, T/C (second compound 1 µM, first compound 0.03 µM) 61.6% | viability, T/C (second compound 1 µM, first compound 0.0949 µM) 54.4% | viability, T/C (second compound 1 µM, first compound 0.3 µM) 44% | viability, T/C (second compound 3.16 µM, first compound 0.000949 µM) 81.7% | viability, T/C (second compound 3.16 µM, first compound 0.003 µM) 84% | viability, T/C (second compound 3.16 µM, first compound 0.00949 µM) 70.7% | viability, T/C (second compound 3.16 µM, first compound 0.03 µM) 64.7% | viability, T/C (second compound 3.16 µM, first compound 0.0949 µM) 51.5% | viability, T/C (second compound 3.16 µM, first compound 0.3 µM) 39.4% | viability, T/C (second compound 10 µM, first compound 0.000949 µM) 78.8% | viability, T/C (second compound 10 µM, first compound 0.003 µM) 77.2% | viability, T/C (second compound 10 µM, first compound 0.00949 µM) 72.6% | viability, T/C (second compound 10 µM, first compound 0.03 µM) 74.8% | viability, T/C (second compound 10 µM, first compound 0.0949 µM) 56.8% | viability, T/C (second compound 10 µM, first compound 0.3 µM) 44.9%
185 nM: IC50 [1]
163 nM: IC50 [2]
199 nM: IC50 [5]
121 nM: IC50 [3]

O=C(C=Cn1cnc(-c2cc(C(F)(F)F)cc(C(F)(F)F)c2)n1)NNc1cnccn1
inactive: viability, T/C (compound 0.00949 µM) 89.8% and 81.2% and 74.5% | viability, T/C (compound 0.03 µM) 88.8% and 78.5% and 89% | viability, T/C (compound 0.0949 µM) 67.4% and 63% and 65.5% | viability, T/C (compound 0.3 µM) 56.7% and 51.7% and 68.9% | viability, T/C (compound 0.949 µM) 45.9% and 42.6% and 45.6% | viability, T/C (compound 3 µM) 28.2% and 30.1% and 35.2%
552 nM and 386 nM and 803 nM: IC50 (curve of compound)

Nc1ccn(C2OC(CO)C(O)C2(F)F)c(=O)n1 (configuration not stated) + Cc1cncc(-c2nc(NCCc3c[nH]c4ccccc34)c3ncn(C(C)C)c3n2)c1
< 31.6 nM: IC50 [1] | IC50 [2] | IC50 [3] | IC50 [5]
inactive: viability, T/C [10] 32.6% | viability, T/C [11] 39.7% | viability, T/C [36] 43.1% | viability, T/C [37] 41.3% | viability, T/C [38] 44% | viability, T/C [39] 38.9% | viability, T/C [16] 34.5% | viability, T/C [17] 38.8% | viability, T/C [40] 44.9% | viability, T/C [41] 38.4% | viability, T/C [42] 39.5% | viability, T/C [43] 39.4% | viability, T/C [22] 46.1% | viability, T/C [23] 33.8% | viability, T/C [44] 39.3% | viability, T/C [45] 37.5% | viability, T/C [46] 41.9% | viability, T/C [47] 43.4% | viability, T/C [28] 71.3% | viability, T/C [29] 39.3% | viability, T/C [48] 40.6% | viability, T/C [49] 41.2% | viability, T/C [50] 43.5% | viability, T/C [51] 39.1% | viability, T/C [34] 33.1% | viability, T/C [35] 16.4% | viability, T/C [52] 13.5% | viability, T/C [53] 10.9% | viability, T/C [54] 15.8% | viability, T/C [55] 18%
70.8 nM: IC50 [4]

CC1COCCN1c1cc(C2(S(C)(=N)=O)CC2)nc(-c2ccnc3[nH]ccc23)n1 (configuration not stated) + CC(CO)NC(=O)c1cc(-c2ccc(Cl)cc2)nn(-c2cnn(C)c2)c1=O
inactive: viability, T/C [10] 155% | viability, T/C [11] 133% | viability, T/C [36] 120% | viability, T/C [37] 78.7% | viability, T/C [38] 86.9% | viability, T/C [39] 108% | viability, T/C [16] 73.3% | viability, T/C [17] 143% | viability, T/C [40] 107% | viability, T/C [41] 56.3% | viability, T/C [42] 70.1% | viability, T/C [43] 72.1% | viability, T/C [22] 142% | viability, T/C [23] 102% | viability, T/C [44] 152% | viability, T/C [45] 121% | viability, T/C [46] 103% | viability, T/C [47] 77.5% | viability, T/C [28] 103% | viability, T/C [29] 94.4% | viability, T/C [48] 132% | viability, T/C [49] 132% | viability, T/C [50] 86.2% | viability, T/C [51] 66.5% | viability, T/C [34] 127% | viability, T/C [35] 101% | viability, T/C [52] 125% | viability, T/C [53] 153% | viability, T/C [54] 107% | viability, T/C [55] 114%
> 10000 nM: IC50 [1] | IC50 [2] | IC50 [3] | IC50 [4] | IC50 [5]
